Measured values published in patent US20100267561A1, “HERBICIDAL PYRIDAZINONE DERIVATIVES” (priority 2007, published 2010).
Read-outs that look alike come from different tables or passages of the source.

Experiments:
Experiment in all cases: Test B pre-/postemergence plant response
Type in all cases: in vivo
[1] = test system: Russian thistle (Salsola iberica); conditions: Preemergence; for Russian Thistle plant response rating: scale 0 to 100
In short: (§1)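 Preemergence and postemergence (plants 2-18 cm, 1- to 4-leaf stage) applications used test chemicals in a non-phytotoxic solvent with surfactant. Plants were held in a greenhouse 13 to 15 days, then rated visually against controls on a 0-100 scale (0 no effect, 100 complete control).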

[2] = test system: bermudagrass (Cynodon dactylon); conditions: for pest or weed control at 31 g/ha: 31 g ai/ha; for pest or weed control at 62 g/ha: 62 g ai/ha, 100 complete control
In short: as §1

[3] = test system: blackgrass (Alopecurus myosuroides); conditions: for pest or weed control at 31 g/ha: 31 g ai/ha; for pest or weed control at 62 g/ha: 62 g ai/ha, 100 complete control
In short: as §1

[4] = test system: catchweed bedstraw (Galium aparine); conditions: Preemergence; for Galium plant response rating: scale 0 to 100
In short: as §1

[5] = test system: cocklebur (Xanthium strumarium); conditions: for pest or weed control at 31 g/ha: 31 g ai/ha; for pest or weed control at 62 g/ha: 62 g ai/ha, 100 complete control
In short: as §1

corn (Zea mays) = conditions: for Corn plant response rating (crop injury, 0 = no effect, 100 = complete kill) at 31 g/ha: 31 g ai/ha; for Corn plant response rating (crop injury, 0 = no effect, 100 = complete kill) at 62 g/ha: 62 g ai/ha, 100 complete control
In short: as §1

[6] = test system: downy bromegrass (Bromus tectorum); conditions: for pest or weed control at 31 g/ha: 31 g ai/ha; for pest or weed control at 62 g/ha: 62 g ai/ha, 100 complete control
In short: as §1

kochia (Kochia scoparia) = conditions: for Kochia plant response rating: postemergence, 0-100 scale; for Plant response rating, Kochia: Postemergence
In short: as §1

[7] = test system: lambsquarters (Chenopodium album); conditions: for pest or weed control at 31 g/ha / pest or weed control at 62 g/ha: Chenopodium album, read-out: Plant response rating, Lambsquarters; for pest or weed control at 31 g/ha: 31 g ai/ha; for pest or weed control at 62 g/ha: 62 g ai/ha, 100 complete control
In short: as §1

[8] = test system: morningglory (Ipomoea coccinea); conditions: for pest or weed control at 31 g/ha / pest or weed control at 62 g/ha: Ipomoea, read-out: Plant response rating, Morningglory; for pest or weed control at 31 g/ha: 31 g ai/ha; for pest or weed control at 62 g/ha: 62 g ai/ha, 100 complete control
In short: as §1

soybean (Glycine max) = conditions: for plant injury at 31 g/ha / plant injury at 62 g/ha: Glycine max, read-out: Plant response rating, Soybean; for plant injury at 31 g/ha: 31 g ai/ha; for plant injury at 62 g/ha: 62 g ai/ha, 100 complete control
In short: as §1

[9] = test system: surinam grass (Brachiaria decumbens); conditions: for pest or weed control at 31 g/ha / pest or weed control at 62 g/ha: Urochloa decumbens, read-out: Plant response rating, Surinam Grass; for pest or weed control at 31 g/ha: 31 g ai/ha; for pest or weed control at 62 g/ha: 62 g ai/ha, 100 complete control
In short: as §1

[10] = test system: wheat (Triticum aestivum); conditions: for plant injury at 31 g/ha / plant injury at 62 g/ha: Triticum aestivum, read-out: Plant response rating, Wheat; for plant injury at 31 g/ha: 31 g ai/ha; for plant injury at 62 g/ha: 62 g ai/ha, 100 complete control
In short: as §1

[11] = test system: yellow nutsedge (Cyperus esculentus); conditions: for pest or weed control at 31 g/ha / pest or weed control at 62 g/ha: Cyperus, read-out: Plant response rating, Nutsedge, Yellow; for pest or weed control at 31 g/ha: 31 g ai/ha; for pest or weed control at 62 g/ha: 62 g ai/ha, 100 complete control
In short: as §1

[12] = 8 g ai/ha, postemergence, 0-100 scale
[13] = Preemergence, 8 g ai/ha, scale 0 to 100
[14] = Preemergence, 16 g ai/ha, scale 0 to 100
[15] = 16 g ai/ha, postemergence, 0-100 scale
[16] = post-emergence, Postemergence, scale 0 to 100
[17] = post-emergence, Postemergence, scale 0 to 100, 0 no effect
[18] = pre-emergence, Preemergence, scale 0 to 100 (0 no effect, 100 complete control)
[19] = pre-emergence, Preemergence, 0 to 100 scale, 0 no effect

Cc1nn(C)c(=O)c(-n2nc(-c3ccc(C(F)(F)F)cc3)cc2C)c1O [Compound 75, 5-hydroxy-2,6-dimethyl-4-[5-methyl-3-[4-(trifluoromethyl)phenyl]-1H-pyrazol-1-yl]-3(2H)-pyridazinone]
Plant response rating, Russian Thistle ([1]; 31 g ai/ha, scale 0 to 100 (0 no effect, 100 complete control)): 0 | Plant response rating, Russian Thistle ([1]; 62 g ai/ha, 0 to 100 scale, 0 no effect, 100 complete control): 0 | Russian Thistle plant response rating ([1]; 8 g ai/ha): 0 | Russian Thistle plant response rating ([1]; 16 g ai/ha): 0 | Bermudagrass plant response rating [2, 12]: 65 | pest or weed control at 16 g/ha ([2]; Cynodon dactylon, post-emergence, Postemergence, 16 g ai/ha, scale 0 to 100, read-out: Plant response rating, Bermudagrass): 80% | pest or weed control at 31 g/ha ([2]; Cynodon dactylon, post-emergence, Postemergence, scale 0 to 100, read-out: Plant response rating, Bermudagrass): 85% | pest or weed control at 62 g/ha ([2]; Cynodon dactylon, post-emergence, Postemergence, scale 0 to 100, 0 no effect, read-out: Plant response rating, Bermudagrass): 90% | pest or weed control at 31 g/ha ([2]; Cynodon dactylon, pre-emergence, Preemergence, scale 0 to 100 (0 no effect, 100 complete control), read-out: Plant response rating, Bermudagrass): 65% | pest or weed control at 62 g/ha ([2]; Cynodon dactylon, pre-emergence, Preemergence, 0 to 100 scale, 0 no effect, read-out: Plant response rating, Bermudagrass): 98% | Bermudagrass plant response rating ([2]; Preemergence, 16 g ai/ha, scale 0 to 100 (0 no effect, 100 complete control)): 0 | Blackgrass plant response rating [3, 12]: 10 | pest or weed control at 16 g/ha ([3]; Alopecurus myosuroides, post-emergence, Postemergence, 16 g ai/ha, scale 0 to 100, read-out: Plant response rating, Blackgrass): 50% | pest or weed control at 31 g/ha ([3]; Alopecurus myosuroides, post-emergence, Postemergence, scale 0 to 100, read-out: Plant response rating, Blackgrass): 65% | pest or weed control at 62 g/ha ([3]; Alopecurus myosuroides, post-emergence, Postemergence, scale 0 to 100, 0 no effect, read-out: Plant response rating, Blackgrass): 95% | pest or weed control at 31 g/ha ([3]; Alopecurus myosuroides, pre-emergence, Preemergence, scale 0 to 100 (0 no effect, 100 complete control), read-out: Plant response rating, Blackgrass): 60% | pest or weed control at 62 g/ha ([3]; Alopecurus myosuroides, pre-emergence, Preemergence, 0 to 100 scale, 0 no effect, read-out: Plant response rating, Blackgrass): 90% | Blackgrass plant response rating [3, 13]: 0 | Blackgrass plant response rating [3, 14]: 20 | pest or weed control at 31 g/ha ([4]; Galium aparine, pre-emergence, 31 g ai/ha, scale 0 to 100 (0 no effect, 100 complete control), read-out: Plant response rating, Galium): 0% | pest or weed control at 62 g/ha ([4]; Galium aparine, pre-emergence, 62 g ai/ha, 0 to 100 scale, 0 no effect, 100 complete control, read-out: Plant response rating, Galium): 0% | Galium plant response rating ([4]; 8 g ai/ha): 0 | Galium plant response rating ([4]; 16 g ai/ha): 0 | Cocklebur plant response rating [5, 12]: 0 | Cocklebur plant response rating [5, 13]: 0 | Cocklebur plant response rating [5, 14]: 0 | pest or weed control at 16 g/ha ([5]; Xanthium strumarium, post-emergence, Postemergence, 16 g ai/ha, scale 0 to 100, read-out: Plant response rating, Cocklebur): 0% | pest or weed control at 31 g/ha ([5]; Xanthium strumarium, post-emergence, Postemergence, scale 0 to 100, read-out: Plant response rating, Cocklebur): 0% | pest or weed control at 62 g/ha ([5]; Xanthium strumarium, post-emergence, Postemergence, scale 0 to 100, 0 no effect, read-out: Plant response rating, Cocklebur): 0% | pest or weed control at 31 g/ha ([5]; Xanthium strumarium, pre-emergence, Preemergence, scale 0 to 100 (0 no effect, 100 complete control), read-out: Plant response rating, Cocklebur): 0% | pest or weed control at 62 g/ha ([5]; Xanthium strumarium, pre-emergence, Preemergence, 0 to 100 scale, 0 no effect, read-out: Plant response rating, Cocklebur): 0% | Corn plant response rating (corn (Zea mays); [12]): 0 | Corn plant response rating (corn (Zea mays); [13]): 0 | Corn plant response rating (corn (Zea mays); [14]): 0 | Corn plant response rating (crop injury, 0 = no effect, 100 = complete kill) at 16 g/ha (corn (Zea mays); Zea mays, post-emergence, Postemergence, 16 g ai/ha, scale 0 to 100): 50% | Corn plant response rating (crop injury, 0 = no effect, 100 = complete kill) at 31 g/ha (corn (Zea mays); Zea mays, post-emergence, Postemergence, scale 0 to 100): 90% | Corn plant response rating (crop injury, 0 = no effect, 100 = complete kill) at 62 g/ha (corn (Zea mays); Zea mays, post-emergence, Postemergence, scale 0 to 100, 0 no effect): 100% | Corn plant response rating (crop injury, 0 = no effect, 100 = complete kill) at 31 g/ha (corn (Zea mays); Zea mays, pre-emergence, Preemergence, scale 0 to 100 (0 no effect, 100 complete control)): 75% | Corn plant response rating (crop injury, 0 = no effect, 100 = complete kill) at 62 g/ha (corn (Zea mays); Zea mays, pre-emergence, Preemergence, 0 to 100 scale, 0 no effect): 95% | Bromegrass, Downy plant response rating [6, 12]: 0 | pest or weed control at 16 g/ha ([6]; Bromus tectorum, post-emergence, Postemergence, 16 g ai/ha, scale 0 to 100, read-out: Plant response rating, Bromegrass, Downy): 10% | pest or weed control at 31 g/ha ([6]; Bromus tectorum, post-emergence, Postemergence, scale 0 to 100, read-out: Plant response rating, Bromegrass, Downy): 30% | pest or weed control at 62 g/ha ([6]; Bromus tectorum, post-emergence, Postemergence, scale 0 to 100, 0 no effect, read-out: Plant response rating, Bromegrass, Downy): 50% | pest or weed control at 31 g/ha ([6]; Bromus tectorum, pre-emergence, Preemergence, scale 0 to 100 (0 no effect, 100 complete control), read-out: Plant response rating, Bromegrass, Downy): 50% | pest or weed control at 62 g/ha ([6]; Bromus tectorum, pre-emergence, Preemergence, 0 to 100 scale, 0 no effect, read-out: Plant response rating, Bromegrass, Downy): 80% | Bromegrass, Downy plant response rating [6, 13]: 0 | Bromegrass, Downy plant response rating [6, 14]: 20 | Kochia plant response rating (kochia (Kochia scoparia); 8 g ai/ha): 0 | Kochia plant response rating (kochia (Kochia scoparia); 16 g ai/ha): 0 | Plant response rating, Kochia (kochia (Kochia scoparia); 31 g ai/ha, scale 0 to 100): 0 | Plant response rating, Kochia (kochia (Kochia scoparia); 62 g ai/ha, scale 0 to 100, 0 no effect, 100 complete control): 0 | Lambsquarters plant response rating [7, 12]: 0 | Lambsquarters plant response rating [7, 15]: 0 | pest or weed control at 31 g/ha [7, 16]: 0% | pest or weed control at 62 g/ha [7, 17]: 0% | pest or weed control at 31 g/ha [7, 18]: 0% | pest or weed control at 62 g/ha [7, 19]: 0% | Lambsquarters plant response rating [7, 13]: 0 | Lambsquarters plant response rating [7, 14]: 0 | Morningglory plant response rating [8, 12]: 0 | Morningglory plant response rating [8, 15]: 0 | pest or weed control at 31 g/ha [8, 16]: 0% | pest or weed control at 62 g/ha [8, 17]: 0% | pest or weed control at 31 g/ha [8, 18]: 0% | pest or weed control at 62 g/ha [8, 19]: 0% | Morningglory plant response rating [8, 13]: 0 | Morningglory plant response rating [8, 14]: 0 | Soybean plant response rating (soybean (Glycine max); [12]): 0 | Soybean plant response rating (soybean (Glycine max); [15]): 0 | plant injury at 31 g/ha (soybean (Glycine max); [16]): 0% | plant injury at 62 g/ha (soybean (Glycine max); [17]): 0% | plant injury at 31 g/ha (soybean (Glycine max); [18]): 0% | plant injury at 62 g/ha (soybean (Glycine max); [19]): 0% | Soybean plant response rating (soybean (Glycine max); [13]): 0 | Soybean plant response rating (soybean (Glycine max); [14]): 0 | Surinam Grass plant response rating [9, 12]: 60 | Surinam Grass plant response rating [9, 15]: 70 | Surinam Grass plant response rating [9, 13]: 45 | Surinam Grass plant response rating [9, 14]: 50 | pest or weed control at 31 g/ha [9, 16]: 75% | pest or weed control at 62 g/ha [9, 17]: 85% | pest or weed control at 31 g/ha [9, 18]: 80% | pest or weed control at 62 g/ha [9, 19]: 98% | Wheat plant response rating [10, 12]: 0 | Wheat plant response rating [10, 15]: 20 | Wheat plant response rating [10, 14]: 0 | plant injury at 31 g/ha [10, 16]: 70% | plant injury at 62 g/ha [10, 17]: 85% | plant injury at 31 g/ha [10, 18]: 20% | plant injury at 62 g/ha [10, 19]: 45% | Nutsedge, Yellow plant response rating [11, 12]: 0 | Nutsedge, Yellow plant response rating [11, 15]: 0 | pest or weed control at 31 g/ha [11, 16]: 0% | pest or weed control at 62 g/ha [11, 17]: 0% | pest or weed control at 31 g/ha [11, 18]: 0% | pest or weed control at 62 g/ha [11, 19]: 0% | Nutsedge, Yellow plant response rating [11, 13]: 0 | Nutsedge, Yellow plant response rating [11, 14]: 0
